Measurements as given in US20260224577A1, “METHODS OF TREATING HEART FAILURE WITH VIBEGRON” (SUMITOMO PHARMA CO., LTD., priority 2021, published 2026).
pEC50: −log10 of the molar value.

Assays:
[1] = molecular target: T1, β2-adrenergic receptor (Homo sapiens, UniProt P07550); experiment: Functional cellular cAMP (HTRF) assay, CHO cells expressing β2-ARs; format: cell-based; conditions: relative to procaterol
T1 construct: expressed in transfected cells; host or cells: CHO
Description: (§1) The potency and maximal effect of vibegron and mirabegron for β3-adrenergic receptors and the selectivity for each […] receptor were determined. Functional cellular assays for vibegron and mirabegron activity were performed using Chinese hamster ovary (CHO) cells expressing β1- or β2-ARs and human embryonic kidney (HEK) 293 cells expressing β3-ARs. Cells were incubated with vibegron, mirabegron, or the appropriate control (isoproterenol for β1 and β3, procaterol for β2). Responses were quantified using homogeneous time-resolved fluorescence of cyclic adenosine monophosphate. Half-maximal effective concentration (EC50) and maximum response (Emax) values were determined by nonlinear least-squares regression analysis.

[2] = molecular target: T2, β1-adrenergic receptor (Homo sapiens, UniProt P08588); experiment: Functional cellular cAMP (HTRF) assay, CHO cells expressing β1-ARs; format: cell-based; conditions: relative to isoproterenol
T2 construct: expressed in transfected cells; host or cells: CHO
T2 sequence (P08588 whole entry): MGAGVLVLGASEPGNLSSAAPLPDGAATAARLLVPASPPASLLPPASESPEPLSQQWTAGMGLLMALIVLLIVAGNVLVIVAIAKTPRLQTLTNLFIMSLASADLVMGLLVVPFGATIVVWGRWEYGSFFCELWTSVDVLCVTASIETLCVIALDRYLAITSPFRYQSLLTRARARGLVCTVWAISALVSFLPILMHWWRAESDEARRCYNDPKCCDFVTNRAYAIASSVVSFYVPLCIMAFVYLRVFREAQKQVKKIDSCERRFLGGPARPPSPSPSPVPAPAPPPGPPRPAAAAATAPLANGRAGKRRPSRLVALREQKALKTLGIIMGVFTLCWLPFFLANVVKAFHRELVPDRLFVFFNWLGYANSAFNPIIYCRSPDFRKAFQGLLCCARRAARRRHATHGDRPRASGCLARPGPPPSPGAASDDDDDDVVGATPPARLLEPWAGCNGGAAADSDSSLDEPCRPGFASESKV
Description: as §1

[3] = molecular target: T3, β3-adrenergic receptor (Homo sapiens, UniProt P13945); experiment: Functional cellular cAMP (HTRF) assay, HEK293 cells expressing β3-ARs; format: cell-based
T3 construct: expressed in transfected cells; host or cells: HEK293
T3 sequence (P13945 whole entry): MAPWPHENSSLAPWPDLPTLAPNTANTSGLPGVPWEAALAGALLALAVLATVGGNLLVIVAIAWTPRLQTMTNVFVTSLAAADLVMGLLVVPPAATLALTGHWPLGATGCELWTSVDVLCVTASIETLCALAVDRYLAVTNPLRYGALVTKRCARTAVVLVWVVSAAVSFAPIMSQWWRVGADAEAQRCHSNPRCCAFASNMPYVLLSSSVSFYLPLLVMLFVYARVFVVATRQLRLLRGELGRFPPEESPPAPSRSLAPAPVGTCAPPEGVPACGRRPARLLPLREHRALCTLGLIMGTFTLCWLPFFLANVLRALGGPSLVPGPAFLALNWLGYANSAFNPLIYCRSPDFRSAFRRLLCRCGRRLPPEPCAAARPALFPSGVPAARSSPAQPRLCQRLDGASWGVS
Description: as §1

[4] = system: subjects with NYHA class II-III HF and LVEF <40%; conditions: BEAT-HF trial; cited from earlier work
[5] = system: elderly patients with heart failure, including a subgroup with HFpEF; conditions: cited from earlier work

T1 sequence (P07550 whole entry): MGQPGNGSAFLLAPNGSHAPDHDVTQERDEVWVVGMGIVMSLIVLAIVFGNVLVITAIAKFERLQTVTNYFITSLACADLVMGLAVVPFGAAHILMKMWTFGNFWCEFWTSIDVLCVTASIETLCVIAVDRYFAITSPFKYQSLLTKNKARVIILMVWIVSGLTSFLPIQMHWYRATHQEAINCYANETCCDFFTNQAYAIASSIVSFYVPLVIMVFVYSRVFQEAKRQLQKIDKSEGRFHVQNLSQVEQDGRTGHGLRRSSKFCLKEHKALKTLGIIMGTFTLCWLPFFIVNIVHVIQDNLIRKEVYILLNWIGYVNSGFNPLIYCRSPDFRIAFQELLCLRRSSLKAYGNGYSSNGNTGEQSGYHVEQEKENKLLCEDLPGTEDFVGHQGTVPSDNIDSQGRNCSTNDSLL

| Compound | β2-adrenergic activity (% Activity) [1] | β1-adrenergic activity (% Activity) [2] | β3-adrenergic activity relative to isoproterenol (% Activity) ([3]; 10 μM, HEK293 cells) | Emax ([3]; HEK293, estimated by nonlinear least-squares regression, read-out: Emax (maximum response) at the β3-AR) | pEC50 ([3]; HEK293 cells expressing β3-ARs, cAMP, read-out: Mean (SEM) EC50 at the β3-AR) | Primary endpoint (change in LVEF) [4] | Treatment of heart failure [5] |
| --- | --- | --- | --- | --- | --- | --- | --- |
| Nc1nc(CC(=O)Nc2ccc(CCNC[C@H](O)c3ccccc3)cc2)cs1 [Mirabegron] | 15% | 3% | 88% | 80.4% | 8.00 | failed to meet the primary endpoint | – |
| OC(CNCC(O)C1CCc2cc(F)ccc2O1)C1CCc2cc(F)ccc2O1 (stereo not shown) [nebivolol] | – | – | – | – | – | – | some success in treating heart failure in elderly patients |
